From patent US20230190705A1, “DRUG COMBINATION FOR TREATING DIABETES MELLITUS AND COMPLICATIONS THEREOF AND PHARMACEUTICAL COMPOSITION OF DRUG COMBINATION” (Chengdu Chipscreen Pharmaceutical Ltd., priority 2020, published 2023)

Assays:
db/db male mice [1] = assay: Blood lipids (serum TC and TG), chiglitazar sodium with dapagliflozin (Example 4); format: in vivo; conditions: oral once a day for 14 days, serum on Day 15, 10 mg/kg chiglitazar sodium, 1.5 mg/kg dapagliflozin or both, FIG. 4
Description: Experimental design: the effects on total cholesterol (TC) and triglyceride (TG) in mouse serum of single and combined medication were investigated, by oral administration of chiglitazar sodium, dapagliflozin, or a combination thereof to diabetic mice.
Wild-type C57BLKS/Jnju mice were used as normal control (administered with vehicle). The period of administration was 14 days, and the animals were treated and dissected on Day 15. Whole blood was collected, serum was centrifuged and serum TC and TG were measured by biochemical analyzer.

db/db male mice [2] = assay: Body weight and fasting blood glucose, chiglitazar sodium with dapagliflozin (Example 2); format: in vivo; conditions: oral once a day for 14 days, 10 mg/kg chiglitazar sodium, 1.5 mg/kg dapagliflozin or both, FIG. 2
Description: Experimental design: the effects on body weight and blood glucose of single and combined medication were investigated, by oral administration of chiglitazar sodium, dapagliflozin, or a combination thereof to mice.
Wild-type C57BLKS/Jnju mice were used as normal control (administered with vehicle). The period of administration was 14 days, and the animals were treated and dissected on Day 15. Starting from the administration, the mice were subjected to weighing and measurement of fasting blood glucose (4-6 hours of fasting) every 3 days.

db/db male mice [3] = assay: Body weight and fasting blood glucose, chiglitazar sodium with empagliflozin (Example 1); format: in vivo; conditions: oral once a day for 14 days, 10 mg/kg chiglitazar sodium, 3 mg/kg empagliflozin or both, FIG. 1; for fasting blood glucose: 4-6 hours of fasting
Description: Experimental design: the effects on body weight and blood glucose of single and combined medication were investigated, by oral administration of chiglitazar sodium, empagliflozin, or a combination thereof to mice.
(§1) Experimental procedure: 6-Week-old db/db male mice were orally administered once a day with 100 µL of vehicle (0.1% sodium carboxymethylcellulose), 10 mg/kg chiglitazar sodium, 3 mg/kg empagliflozin, or a combination of chiglitazar sodium and empagliflozin at the same doses simultaneously, respectively, according to body weight. Wild-type C57BLKS/Jnju mice were used as normal control (administered with the vehicle). The period of administration was 14 days, and the animals were treated and dissected on Day 15. Starting from the administration, the mice were subjected to weighing and measurement of fasting blood glucose (4-6 hours of fasting) every 3 days.

db/db male mice [4] = assay: Blood lipids (serum TC and TG), chiglitazar sodium with empagliflozin (Example 3); format: in vivo; conditions: oral once a day for 14 days, serum on Day 15, 10 mg/kg chiglitazar sodium, 3 mg/kg empagliflozin or both, FIG. 3
Description: Experimental design: the effects on total cholesterol (TC) and triglyceride (TG) in mouse serum of single and combined medication were investigated, by oral administration of chiglitazar sodium, empagliflozin, or a combination thereof to diabetic mice.
as §1, with “with” for “with the”, “Whole blood was collected, serum was centrifuged and serum TC and TG” for “Starting from the administration, the mice”, “measured by biochemical analyzer.” for “subjected to weighing and measurement of fasting blood glucose (4-6 hours of fasting) every 3 days.”

diabetic patients = conditions: clinical studies; cited from earlier work

Compound	serum total cholesterol (TC) (db/db male mice [1])	serum triglyceride (TG) (db/db male mice [1])	fasting blood glucose (db/db male mice [2]; 4-6 hours of fasting)	body weight (db/db male mice [2])	fasting blood glucose (db/db male mice [3])	body weight (db/db male mice [3])	serum total cholesterol (TC) (db/db male mice [4])	serum triglyceride (TG) (db/db male mice [4])	efficacy on blood glucose and lipids in diabetic patients (diabetic patients)	weight gain effect in diabetic patients (diabetic patients)
O=C(c1ccc(F)cc1)c1ccccc1NC(Cc1ccc(OCCn2c3ccccc3c3ccccc32)cc1)C(=O)O (stereo not shown) [chiglitazar sodium]	could reduce the serum total cholesterol and triglyceride levels to a certain extent	could reduce the serum total cholesterol and triglyceride levels to a certain extent	could reduce blood glucose to a certain extent	weight gain	could reduce blood glucose to a certain extent	weight gain	could reduce the serum total cholesterol and triglyceride levels to a certain extent	could reduce the serum total cholesterol and triglyceride levels to a certain extent	has efficacy in reducing blood glucose and improving lipids in diabetic patients	having certain weight gain effect
OC[C@H]1O[C@@H](c2ccc(Cl)c(Cc3ccc(O[C@H]4CCOC4)cc3)c2)[C@H](O)[C@@H](O)[C@@H]1O [empagliflozin, reference compound]	–	–	–	–	could reduce blood glucose to a certain extent	–	could reduce the serum total cholesterol and triglyceride levels to a certain extent	could reduce the serum total cholesterol and triglyceride levels to a certain extent	–	–
